Like-named read-outs stand apart in the source and are kept apart here.
How the values were obtained:
Format in all cases: cell-based, mouse
[1] = system: volume-sensitive Cl- channel; assay: Whole-cell patch-clamp of current activated by hyposmotic stimulation; settings: primary cultured cerebral cortical neurons
Experimental: The cerebral cortex of fetuses removed from mice on day 16 of pregnancy was plated on cover-glass slips after digestion with papain. To prevent growth of glias and other proliferative cells, the cultures were supplemented with AraC (4 µM) 2 days after plating and a neuron-rich (>95%) culture system was prepared. A whole-cell patch-clamp technique was applied to primary cultures of cerebral cortical neurons (5-8 days after incubation). The intracellular and extracellular solutions used for the patch-clamp experiments were composed of the following. Intracellular solution (300mOsm, pH 7.4): 24 mM NMDG-C1, 100 mM NMDG-aspartate, 2 mM MgCl2, 5 mM Na2ATP, 0.3 mMNa3 GTP, 1 mM EGTA, 10 mM HEPES. […] Osmolality was adjusted by adding mannitol. Current activation was observed overtime by applying a potential of ±60 mV (500 ms duration, every 15 s) from a holding potential of -40 mV. To observe current kinetics, step pulses from -100 mV to +100 mV in 20 mV increments were applied (0.5 s duration) and current response was observed. The recordings were plotted in a current-voltage curve.

[2] = system: primary cultured cerebral cortical neurons; assay: Varicosity formation (neuronal swelling) during excitotoxic NMDA stimulation
Experimental: (§1) In order to access effects of volume-sensitive Cl- channel blocker on neuronal swelling or necrosis caused by hyperexcitation, primary cultures of cerebral cortical neurons isolated from fetuses removed from mice on day 16 of pregnancy were used. The primary cultured cerebral cortical neurons were cultured in a 5% CO2 incubator at 37°C, using Dulbecco's medium supplemented with 10% fetal bovine serum, streptomycin, and penicillin. To visualize dendrites, the cultured cerebral cortical neurons were transfected with EGFP gene on day 3 of culture, using a […] phosphate method. As an excitotoxic stimulant, Earle's Balanced Salt Solution (EBSS; commercially available as GIBCO#14155-063) was used that contained 30 µM N-methyl-D-aspartate (NMDA) and 30 µM glycine, supplemented with 2 mM CaCl2 and 0.5 mM MgCl2. To confirm activation of volume-sensitive Cl- channel, an experiment was conducted using a perforated-vesicle patch-clamp technique. After forming a gigaohm seal on the membrane of the varicosities exposed to excitotoxic stimulation, recording electrodes were raised to record currents from a single varicosity patch membrane. The intracellular and extracellular solutions used for the patch-clamp experiment were composed of the following. Extracellular solution: 124 mM N-methyl-D-glucamine (NMDG), 124 mM HCl, 20 mM TEA-Cl, 4 mM MgCl2, 0.33 mM NaH2PO4, 0.5 mM EGTA, 10 mM 2-[4-(2-hydroxyethyl)-1-piperazinyl] ethanesulfonic acid (HEPES), 2 mM 4-aminopyridine (4-AP), 5.5 mM glucose, 270mOsm, pH7.4. Intracellular solution: 145 mM KCl, 10 mM HEPES, 1 mM EGTA, 1 mM MgCl2, 0.3 mg/ml nystatin, 300mOsm, pH 7.4.
Neuronal swelling was assessed as a proportion of varicosity-forming cells in the total number of neurons. After 20-minute excitotoxic stimulation, the cells were fixed with 4% paraformaldehyde, and the number of cells in each cell group was counted with a fluorescent microscope.
Figure 7A is micrographs showing excitotoxic swelling of neurons induced by glutamate receptor agonist (30 µM NMDA). Primary cultured cerebral cortical neurons were visualized through EGFP expression. […] Figure 7B represents inhibitory action of Cl- channel blocker on varicosity formation. In the Figure, asterisk indicates a level of significant difference (p<0.05) from data on NMDA (before application of blocker).

[3] = system: EGFP-transfected primary cultured cerebral cortical neurons; assay: Recovery from varicosities after removal of excitotoxic (NMDA) stimulation; settings: 60 minutes after 20-minute 30 µM NMDA stimulation; concentration not given
Experimental: Primary cultured cerebral cortical neurons were transfected on day 3 of culture with a plasmid containing green fluorescent protein EGFP gene, using a […] phosphate method. […] Cells on day 2-6 of transfection were used for the experiment.
The cells were subjected to an excitotoxic stimulant by 20-minute exposure to low-magnesium HEPES buffer (composition: 142 mM NaCl, 2.5 mM KCl, 0.5 mM EGTA, 0.5 mM MgCl2, 0.33 mM NaH2PO4, 10 mM HEPES, 5.5 mM glucose, 0.03 mM glycine) containing NMDA (30 µM). After stimulation, the cells were washed three times with normal HEPES buffer (composition: 140 mM NaCl, 2.5 mM KCl, 2 mM CaCl2, 2 mM MgCl2, 10 mM HEPES, 5.5 mM glucose, 35 mM mannitol). The cells were then incubated at 37°C in the same buffer, and fixed with 4% paraformaldehyde at different time points (0, 15, 30, 60 min).
As in Example 4, EGFP-transfected primary cultured cerebral cortical neurons were used. According to the procedure of Example 4, the cells were subjected to excitotoxic stimulation, and incubated with normal HEPES buffer supplemented with various kinds of medicines. After 60 minutes, the cells were fixed with 4% paraformaldehyde, and the number of varicosity-bearing cells was counted with a fluorescent microscope as a percentage of the total number of counted neurons.

[4] = system: primary cultured cerebral cortical neurons; assay: Necrotic neuronal cell death by LDH release after NMDA exposure
Experimental: as §1
(§2) Necrotic neuronal cell death was assessed by PI staining in which the nuclei are stained with a propidium iodide (PI) dye that enters the cells through damaged portions of the plasma membrane, or by measuring the level of extracellular lactate dehydrogenase (LDH) released from dead cells.

[5] = system: volume-sensitive Cl- channel; assay: Perforated-vesicle patch-clamp of single-channel currents on the varicosity membrane
Experimental: In order to access effects of volume-sensitive Cl- channel blocker on neuronal swelling or necrosis caused by hyperexcitation, primary cultures of cerebral cortical neurons isolated from fetuses removed from mice on day 16 of pregnancy were used. The primary cultured cerebral cortical neurons were cultured in a 5% CO2 incubator at 37°C, using Dulbecco's medium supplemented with 10% fetal bovine serum, streptomycin, and penicillin. To visualize dendrites, the cultured cerebral cortical neurons were transfected with EGFP gene on day 3 of culture, using a […] phosphate method. As an excitotoxic stimulant, Earle's Balanced Salt Solution (EBSS; commercially available as GIBCO#14155-063) was used that contained 30 µM N-methyl-D-aspartate (NMDA) and 30 µM glycine, supplemented with 2 mM CaCl2 and 0.5 mM MgCl2. To confirm activation of volume-sensitive Cl- channel, an experiment was conducted using a perforated-vesicle patch-clamp technique. […]
After forming a gigaohm seal on the membrane of varicosities formed by excitotoxic stimulation (Figure 8A), the recording electrodes were lifted up to excise a single varicosity, with which recordings of volume-sensitive Cl- currents were made (Figure 8B). […] These properties of the recorded currents coincided with those of the volume-sensitive Cl- channel.

[6] = system: cerebral cortical neurons; assay: Volume regulation (recovery from swelling) under hypotonic conditions, soma cross-sectional area by two-photon microscopy; settings: 80 µM; hyposmotic solution 200mOsm
Experimental: Primary cultured neurons on day 5-8 of culture were loaded with calcein-AM to visualize the cells, and X-Y cross sectional images were captured over time with a two-photon laser microscope. Cell size was assessed based on changes in cross sectional area of the soma. An area ratio at each time point was calculated and plotted on a graph, with the area at the start of experiment given as 1 (Figure 2B). The solution used for the experiment had the following composition: 90 mM NaCl, 2.5 mM KCl, 5 mM HEPES, 2 mM MgCl2, 2 mM CaCl2, and 10 mM glucose.

[7] = system: primary cultured cerebral cortical neurons; assay: Necrotic neuronal cell death by PI staining after NMDA exposure
Experimental: as §1, §2

[8] = 40 µM co-applied with NMDA for 3 hours
[9] = 100 µM during 20-minute 30 µM NMDA stimulation
[10] = 100 µM co-applied with NMDA for 3 hours

O=S(=O)(O)c1cc(N=C=S)ccc1C=Cc1ccc(N=C=S)cc1S(=O)(=O)O [DIDS]
inhibition of current activated by hyposmotic stimulation ([1]; 400 µM): inhibited

O=C(O)c1cc([N+](=O)[O-])ccc1NCCCc1ccccc1 [NPPB]
inhibition of current activated by hyposmotic stimulation ([1]; 80 µM): inhibited | number of varicosity-forming neurons ([2]; 40 µM during 20-minute 30 µM NMDA stimulation): decreased significantly | Recovery from varicosities [3]: significantly inhibited | level of LDH release [4, 8]: significantly inhibited | single-channel events observed on the varicosity ([5]; 80 µM, 3 minutes after application): blocked | blocking effect after removal ([5]; 3 minutes after removal of 80 µM): reversible | volume regulation [6]: inhibited | number of PI positive cells [7, 8]: decreased significantly

CN1CCc2cc3c(cc2[C@H]1[C@@H]1OC(=O)c2c1ccc1c2OCO1)OCO3 [bicuculline]
number of varicosity-forming neurons [2]: no significant inhibiting effects | level of LDH release [4]: No inhibiting effects | number of PI positive cells [7]: no significant inhibiting effects

O=C(CCc1ccc(O)cc1)c1c(O)cc(O)cc1O [phloretin]
inhibition of current activated by hyposmotic stimulation ([1]; 100 µM): inhibited | number of varicosity-forming neurons [2, 9]: decreased significantly | Recovery from varicosities [3]: significantly inhibited | level of LDH release [4, 10]: significantly inhibited | number of PI positive cells [7, 10]: decreased significantly

picrotoxin
number of varicosity-forming neurons [2, 9]: no significant inhibiting effects | level of LDH release [4, 10]: No inhibiting effects | number of PI positive cells [7, 10]: no significant inhibiting effects

Reference: patent EP1818063A1, “MEDICINE FOR TREATMENT OF DISEASE CAUSED BY HYPERSTIMULATORY CYTOTOXICITY AND THERAPEUTIC METHOD” (Japan Science and Technology Agency, priority 2004, dated 2006)
